The text below walks through data of patent US4013657A, “O-ethyl-S-n-propyl-O-[pyridaz-(6)-on-(3)-yl]-thionothiolphosphoric acid esters” (priority 1973, dated 1977).

Molecules are shown by their SMILES.

Data set [1] has as its system two-spotted spider mite (Tetranychus urticae). Briefly: Tetranychus test (resistant). In kind it is in vivo. The conditions noted are these: 48 h, active compound concentration 0.1 %, after 2 days, resistant mites, read-out: Degree of destruction in % after 2 days. The procedure: Tetranychus test (resistant)
(§1) Solvent: 3 parts by weight of acetone
(§2) Emulsifier: 1 part by weight of alkylaryl polyglycol ether
(§3) To produce a suitable preparation of active compound, 1 part by weight of the active compound was mixed with the stated amount of solvent containing the stated amount of emulsifier and the concentrate was diluted with water to the desired concentration.
These bean plants were heavily infested with the two-spotted spider mite (Tetranychus urticae) in all stages of development.
After the specified periods of time, the effectiveness of the preparation of active compound was determined by counting the dead mites. The degree of destruction thus obtained was expressed as a percentage: 100% means that all the spider mites were killed whereas 0% means that none of the spider mites were killed.
The active compounds, the concentrations of the active compounds, the evaluation times and the results can be seen from the following Table 3: […]

Data set [2] relates to caterpillars of the diamond-back moth (Plutella maculipennis). The experiment in a line: Plutella test. The settings on record: 72 h, after 3 days, read-out: Degree of destruction in % after 3 days; for mortality at 0.1 %: active compound concentration 0.1 %. In kind it is in vivo. As to the method: as §1, §2, §3
Cabbage leaves (Brassica oleracea) were sprayed with the preparation of the active compound until dew moist and were then infested with caterpillars of the diamond-back moth (Plutella maculipennis).
After the specified periods of time, the degree of destruction was determined as a percentage: 100% means that all the caterpillars were killed, whereas 0% means that none of the caterpillars were killed.
The active compounds, the concentrations of the active compounds, the evaluation times and the results can be seen from the following Table 2.

A short description of data set [3]: Toxicity test, albino rat/peroral. The conditions noted are these: in vivo, po; albino rat; peroral; evaluation after 7 days. The procedure: Test animal: Albino rat (Rattus norvegicus)
To produce a suitable preparation of active compound, 3 parts by weight of active compound were mixed with 2.8 parts by weight of highly disperse silica and 4.2 parts by weight of talc. Suspensions, which contained, in 1 ml of liquid, the amount of active compound to be adminstered per 100 g of animal weight, were prepared from the above active-compound concentrate, with addition of a little powdered vegetable gum, by trituration with water. The dosage was measured out volumetrically after weighing the test animals. It was administered orally by means of a steel knob-ended probe. The results were in each case evaluated at the end of the above-mentioned interval of time, calculated from the administration of the active compound.
The LD50 values (dose of active compound which kills 50% of the treated animals) was determined from the mortality values of the dose which were varied in geometrical progression, in the usual manner.
The active compounds and LD50 values can be seen from Table 5 which follows.

In data set [4] the test system is warm-blooded animals. The conditions noted are these: prior-art compounds; cited from earlier work.
The subject of data set [5] is insects and acarids. The conditions noted are these: prior-art compounds; cited from earlier work.
The test system of data set [6] is fly larvae (Lucilia cuprina). Briefly: Test with parasitic fly larvae/Lucilia cuprina res. In kind it is in vivo. The settings on record: after 24 hours, resistant larvae, read-out: Degree of destruction in %. As to the method:
Test with parasitic fly larvae
35 parts by weight of ethylene polyglycol monomethyl ether
35 parts by weight of nonylphenol polyglycol ether
To produce a suitable preparation of active compound, 30 parts by weight of the active substance in question were mixed with the stated amount of solvent which contained the above-mentioned proportion of emulsifier and the concentrate thus obtained was diluted with water to the desired concentration.
About 20 fly larvae (Lucilia cuprina) were introduced into a test tube which contained approximately 2 ml of horse muscle. 0.5 ml of the preparation of active compound was applied to this horse meat. After 24 hours, the degree of destruction in % was determined. 100% means that all the larvae had been killed and 0% means that no larvae had been killed.

As a reminder, the LD50 is the dose expected to kill half of the subjects tested. In the case of `CCOP(=S)(OCC)Oc1n[nH]c(=O)c2ccccc12` [Compound A, O,O-diethyl-O-[phthalaz-(8)-on-(3)-yl]-thionophosphoric acid ester], the mortality at 0.1 % in data set [1] and in data set [2] was 0% in each case. The compound further returned a median lethal dose (LD50) at 168 h in data set [3] of approximately 25 mg/kg. Also, the “toxicity to warm-blooded animals” value in data set [4] is “high toxicity to warm-blooded animals”. In addition, in data set [5], the “insecticidal and acaricidal properties” value is “good insecticidal and acaricidal properties”.

Consider `CCOP(=S)(OCC)Oc1ccc(=O)[nH]n1` [Compound B, O,O-diethyl-O-[pyridaz-(6)-on-(3)-yl]-thionophosphoric acid ester], for which, in data set [6] (active compound concentration 30 ppm), the mortality at 30 ppm was less than 50%. For the same compound, in data set [6] (active compound concentration 300 ppm), the mortality at 300 ppm came out at 100%. Also, the mortality at 0.1 % was 20% in data set [1] and 100% in data set [2]. In addition, in data set [2] (active compound concentration 0.001 %), the mortality at 0.001 % was determined as 0%. In addition, in data set [2] (active compound concentration 0.01 %), the mortality at 0.01 % amounted to 80%. For the same compound, the 50% lethal dose (LD50) at 168 h in data set [3] lay in the range of 2.5 to 5 mg/kg. Besides, the “toxicity to warm-blooded animals” value in data set [4] was “high toxicity to warm-blooded animals”. Further, the “insecticidal and acaricidal properties” value in data set [5] was “good insecticidal and acaricidal properties”.
